Experimental data published in ChEMBL document CHEMBL1201862, “PubChem BioAssay data set” (2004).
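Values below derive from 48-hour exposures of cells grown in 96-well plates, with endpoints linearly interpolated between the two concentrations bracketing the appropriate inhibition level. GI50 is the concentration that inhibits growth by half.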 The source made the active and inactive calls. Cut-off read from the data, not from the text of the source: active = GI50 up to about 1.1 µM and inactive = higher.

What was measured:
Assay in all cases: inhibition of tumour cell growth, NCI panel, 48 h
[1] = test system: RXF 393
[2] = test system: IGROV-1
[3] = test system: OVCAR-5
[4] = test system: SK-MEL-28
[5] = test system: CCRF-CEM
[6] = test system: OVCAR-4
[7] = test system: SF-539
[8] = test system: RPMI-8226
[9] = test system: CAKI-1
[10] = test system: HT-29
[11] = test system: T47D
[12] = test system: OVCAR-8
[13] = test system: MDA-N
[14] = test system: A549
[15] = test system: SK-OV-3
[16] = test system: K562
[17] = test system: UACC-257
[18] = test system: LOX IMVI
[19] = test system: SR
[20] = test system: SNB-19

Measured: GI50

CC(C)c1ccc(/C(C(=O)O)=C(\O)C(=O)O)cc1
inactive: [1] > 100 µM | [2] > 100 µM | [3] > 100 µM | [4] > 100 µM | [5] > 100 µM | [6] > 100 µM | [7] > 100 µM | [8] > 100 µM | [9] > 100 µM | [10] > 100 µM | [11] > 100 µM | [12] > 100 µM | [13] > 100 µM | [14] > 100 µM | [15] > 100 µM | [16] > 100 µM | [17] > 100 µM | [18] > 100 µM | [19] > 100 µM | [20] > 100 µM

CNc1ccc(Cl)cc1S(=O)(=O)c1ccccc1[N+](=O)[O-]
inactive: [1] > 100 µM | [2] > 100 µM | [3] > 100 µM | [4] > 100 µM | [5] > 100 µM | [6] 99.3 µM | [7] > 100 µM | [8] > 100 µM | [10] > 100 µM | [11] > 100 µM | [12] > 100 µM | [13] > 100 µM | [14] > 100 µM | [15] > 100 µM | [16] > 100 µM | [18] > 100 µM | [19] > 100 µM | [20] > 100 µM

O=C(N/N=C/c1ccc2c(c1)CCC2)c1ccccc1O
inactive: [1] 23 µM | [2] 17.8 µM | [3] 32.5 µM | [4] 23.5 µM | [5] 8.71 µM | [6] 24.8 µM | [7] 31.5 µM | [8] 32.5 µM | [9] 28.4 µM | [10] 27.3 µM | [11] 25.5 µM | [12] 25.4 µM | [13] 19.4 µM | [14] 21.2 µM | [15] 12.1 µM | [16] 38.9 µM | [17] 28.6 µM | [18] 27.8 µM | [19] 30.9 µM | [20] 19.8 µM

O=[N+]([O-])c1ccc(/C=N/n2c(S)nnc2CCc2nnc(S)n2/N=C/c2ccc([N+](=O)[O-])o2)o1
inactive: [1] 16.7 µM | [2] 44.3 µM | [3] > 100 µM | [4] 16.6 µM | [5] 20 µM | [6] 19.3 µM | [7] 41.5 µM | [8] 29.4 µM | [9] 20.2 µM | [10] 29.3 µM | [11] 23.1 µM | [12] 31.9 µM | [13] 13.8 µM | [15] > 100 µM | [16] 28.6 µM | [17] 22.4 µM | [18] 20.4 µM | [19] 28.3 µM

CCOC(=O)N/N=C/C1=NN(C(=O)OCC)[S+]([O-])C1C (configuration not stated)
inactive: [1] > 100 µM | [2] > 100 µM | [3] > 100 µM | [4] > 100 µM | [5] > 100 µM | [6] > 100 µM | [7] > 100 µM | [8] > 100 µM | [9] > 100 µM | [10] > 100 µM | [11] > 100 µM | [12] > 100 µM | [13] > 100 µM | [14] > 100 µM | [15] > 100 µM | [16] > 100 µM | [17] > 100 µM | [19] > 100 µM | [20] > 100 µM

O=[N+]([O-])c1cc(-c2nc(-c3ccccc3)c(-c3ccccc3)[nH]2)c(O)c([N+](=O)[O-])c1
inactive: [1] 17.4 µM | [2] 32.7 µM | [3] 23.2 µM | [4] 31.7 µM | [5] 25.9 µM | [6] 34 µM | [7] 19.5 µM | [8] 27 µM | [9] 27.4 µM | [10] 16.8 µM | [11] 20.3 µM | [12] 34 µM | [13] 31.1 µM | [14] 34.4 µM | [15] 20.2 µM | [16] 30.8 µM | [17] 24.2 µM | [18] 23.6 µM | [19] 20.8 µM | [20] 36.9 µM

O=c1[nH]c2ccc(Cl)cc2c2oc(-c3ccccc3)nc12
inactive: [1] 14.1 µM | [2] 29.1 µM | [3] 52.1 µM | [5] 45.5 µM | [6] 18.1 µM | [7] 29.3 µM | [8] 26 µM | [9] 21.6 µM | [10] 83.9 µM | [11] 19.2 µM | [12] 5.62 µM | [13] 45.7 µM | [14] 22.1 µM | [15] 24.2 µM | [16] 72.6 µM | [17] 52.7 µM | [18] 32.5 µM | [19] 21 µM | [20] 19.8 µM

CCOC(=O)NC(Nc1cccc(C(F)(F)F)c1)(C(F)(F)F)C(F)(F)F
inactive: [1] > 100 µM | [2] > 100 µM | [3] > 100 µM | [4] > 100 µM | [5] > 100 µM | [7] > 100 µM | [8] > 100 µM | [9] > 100 µM | [10] > 100 µM | [11] > 100 µM | [12] > 100 µM | [13] > 100 µM | [14] > 100 µM | [15] > 100 µM | [16] > 100 µM | [17] > 100 µM | [18] > 100 µM | [19] > 100 µM | [20] > 100 µM

CCOC(=O)c1ccc(N(C)Cc2cnc3nc(N)nc(N)c3n2)cc1
inactive: [1] 5.97 µM | [2] 5.71 µM | [3] 17.4 µM | [4] 17.9 µM | [5] 89.9 µM | [7] 8.13 µM | [8] 74 µM | [9] 14.4 µM | [10] 7.98 µM | [11] 26.9 µM | [12] 7.64 µM | [13] 18.5 µM | [15] 18.5 µM | [16] 2.58 µM | [17] 9.77 µM | [18] 5.5 µM | [19] 6.81 µM | [20] 11.6 µM

O=C(O)[C@@H]1C2CC([C@@H]1C(=O)O)[C@H](N1C(=O)CCC1=O)[C@@H]2Br (some centres not stated)
inactive: [1] > 100 µM | [2] > 100 µM | [3] > 100 µM | [4] > 100 µM | [5] > 100 µM | [6] > 100 µM | [7] > 100 µM | [8] > 100 µM | [10] > 100 µM | [11] > 100 µM | [12] > 100 µM | [13] > 100 µM | [14] > 100 µM | [15] > 100 µM | [16] > 100 µM | [17] > 100 µM | [18] > 100 µM | [19] > 100 µM | [20] > 100 µM

Fc1ccc(C(=C2CCN(CCc3ccc4[nH]c(=S)[nH]c4c3)CC2)c2ccc(F)cc2)cc1
inactive: [1] 1.85 µM | [2] 3.99 µM | [3] 9.23 µM | [4] 1.51 µM | [5] 2.01 µM | [6] 5 µM | [7] 2.79 µM | [8] 2.73 µM | [9] 10.8 µM | [10] 1.9 µM | [11] 1.92 µM | [12] 2.74 µM | [13] 1.96 µM | [14] 3.94 µM | [15] 18.7 µM | [16] 3.1 µM | [18] 4.9 µM | [19] 2.7 µM | [20] 12.4 µM

CC(=O)N1c2ccccc2C(C)C1c1[nH]c2ccccc2c1C (configuration not stated)
inactive: [1] 13 µM | [2] 24.1 µM | [3] 14.9 µM | [4] 20.3 µM | [5] 25.6 µM | [6] 23.4 µM | [7] 11 µM | [8] 13 µM | [9] 22.8 µM | [10] 20.2 µM | [11] 18.8 µM | [12] 20.8 µM | [13] 19.9 µM | [14] 23.4 µM | [15] 19.7 µM | [16] 19.5 µM | [17] 18.1 µM | [18] 26.1 µM | [19] 13.9 µM | [20] 31.6 µM

C=C1CC[C@@]2(C)[C@@H]([C@@H]1C)[C@H]1CC[C@@H]3[C@@]4(C)CC[C@H](O)C(C)(C)[C@@H]4CC[C@@]3(C)[C@]1(C)C[C@@H]2O
inactive: [1] 1.77 µM | [2] 2 µM | [3] 4.25 µM | [4] 4.12 µM | [5] 5.83 µM | [6] 2.49 µM | [7] 2.45 µM | [8] > 100 µM | [9] 2.42 µM | [10] 3.9 µM | [11] 2.55 µM | [12] 1.85 µM | [13] 8.53 µM | [14] 2.05 µM | [15] 3.79 µM | [17] 8.07 µM | [18] 1.99 µM | [19] > 100 µM | [20] 2.32 µM

N=C(N)NCCCC(=O)O
inactive: [1] > 100 µM | [2] > 100 µM | [3] > 100 µM | [4] > 100 µM | [5] > 100 µM | [6] > 100 µM | [7] > 100 µM | [8] > 100 µM | [9] > 100 µM | [10] > 100 µM | [11] > 100 µM | [12] > 100 µM | [13] > 100 µM | [14] > 100 µM | [15] > 100 µM | [16] > 100 µM | [18] > 100 µM | [19] > 100 µM | [20] > 100 µM
